Measurements reported in patent US10563263B2, “Genetic polymorphisms associated with statin response and cardiovascular diseases, methods of detection and uses thereof” (CELERA CORPORATION, priority 2010, dated 2020).

Test system: CHD (fatal CHD, definite non-fatal MI, or revascularization)
Experiment: CARE: SNP by pravastatin treatment interaction, logistic regression (synergy index), CHD endpoint
Assay type: in vivo, human
Text: CARE was a secondary prevention trial and WOSCOPS was a primary prevention trial.
The CHD endpoint was defined in the analyses herein of CARE as a composite endpoint of fatal CHD, definite non-fatal MI, or revascularization, and was defined in the analyses herein of WOSCOPS as a composite endpoint of death from CHD, nonfatal MI, or revascularization. In both the CARE and WOSCOPS analyses herein, the CVD endpoint was defined as a composite endpoint of CHD or stroke. […] Revascularization, which can include percutaneous transluminal coronary angioplasty (PTCA), stent placement, and coronary artery bypass graft (CABG), are medical interventions that indicate the presence of CHD.
Cohort and case-only study designs were used to identify SNPs associated with response to statin treatment.
For each SNP, a logistic regression model having treatment status as the dependent variable and SNP as the independent predictor variable was performed, with terms for age, sex and race included in the model as covariates. The anti-log of the regression coefficient corresponding to the SNP is an estimate of the synergy index (SI) (Davis et al., “Imputing gene-treatment interactions when the genotype distribution is unknown using case-only and putative placebo analyses-a new method for the Genetics of Hypertension Associated Treatment (GenHAT) study”, Statistics in Medicine 23: (2004), pages 2413-2427). The SI is a ratio of odds ratios: for example in the CARE and WOSCOPS studies, the SI represents the factor by which the odds-ratio of statin treatment, compared with placebo, among major homozygous individuals is multiplied by in order to obtain the odds-ratio of treatment vs. placebo among heterozygous individuals; and multiplied by a second time to obtain the odds-ratio of treatment vs. placebo in minor homozygous individuals. The case-only study design results in a valid estimate of the SI under the assumption that genotype and treatment are independent in the population. In a randomized clinical trial, genotype and treatment are independent by design. The p-value for the regression coefficient corresponding to the SNP results from a test of the null hypothesis that the regression coefficient is equal to zero (SI is equal to one) and thus small p-values indicate the SI is unlikely equal to one and that the effect of treatment likely differs by genotype.
A case-only study design was used to test whether the reduction of CHD events by statin therapy (for CARE and WOSCOPS studies) differed according to genotype (a treatment by SNP interaction) for each SNP evaluated in the study.

Q: What does the source list for `CC[C@H](C)C(=O)O[C@H]1C[C@H](O)C=C2C=C[C@H](C)[C@H](CC[C@@H](O)C[C@@H](O)CC(=O)O)[C@H]21` [Pravastatin, pravastatin]?
A: CARE OR (rs3732788 allele G vs A (ref), Source cohort): 0.56; CARE OR (rs3798544 allele A vs G (ref), Source cohort): 1.47; CARE OR (rs3998860 allele A vs G (ref), Source cohort): 0.58; CARE OR (rs4289236 allele A vs G (ref), Source cohort): 1.37; CARE OR (rs4611134 allele A vs G (ref), Source cohort): 1.54; CARE OR (rs4643388 allele G vs A (ref), Source cohort): 1.32; CARE OR (rs4682522 allele C vs A (ref), Source cohort): 0.59; CARE OR (rs4830819 allele G vs A (ref), Source cohort): 0.57; CARE OR (rs4869033 allele G vs A (ref), Source cohort): 0.31; CARE OR (rs4924215 allele A vs G (ref), Source cohort): 1.77; CARE OR (rs4986146 allele A vs G (ref), Source cohort): 0.62; CARE OR (rs4993917 allele A vs C (ref), Source cohort): 0.57; CARE OR (rs5017584 allele A vs G (ref), Source cohort): 1.61; CARE OR (rs6075209 allele A vs G (ref), Source cohort): 0.63; CARE OR (rs6080603 allele A vs C (ref), Source cohort): 0.59; CARE OR (rs6491586 allele G vs A (ref), Source cohort): 1.59; CARE OR (rs6505669 allele G vs A (ref), Source cohort): 1.70; CARE OR (rs6911817, allele A1 A (non-ref), A2 G (ref), source cohort, endpoint/model not given): 2.15; CARE OR (rs7094941, allele A1 G (non-ref), A2 A (ref), source cohort, endpoint/model not given): 0.78; CARE OR (rs7179134 allele A vs G (ref), Source cohort): 3.54; CARE OR (rs7193741 allele A vs C (ref), Source cohort): 2.16; CARE OR (rs7327364 allele A vs G (ref), Source cohort): 0.69; CARE OR (rs7497613, allele A1 A (non-ref), A2 G (ref), source cohort, endpoint/model not given): 0.65; CARE OR (rs7616936, allele A1 C (non-ref), A2 A (ref), source cohort, endpoint/model not given): 1.47; CARE OR (rs7705993 allele G vs A (ref), Source cohort): 1.50; CARE OR (rs7767024, allele A1 A (non-ref), A2 G (ref), source cohort, endpoint/model not given): 1.32; CARE OR (rs7910196, allele A1 G (non-ref), A2 A (ref), source cohort, endpoint/model not given): 1.36; CARE OR (rs8051893 allele A vs G (ref), Source cohort): 0.69; CARE OR (rs8109631 allele A vs G (ref), Source cohort): 1.53; CARE OR (rs9375683 allele G vs A (ref), Source cohort): 1.63; CARE OR (rs9436636 allele A vs G (ref), Source cohort): 1.34; CARE OR (rs9446187 allele A vs G (ref), Source cohort): 1.92; CARE OR (rs9658127, allele A1 A (non-ref), A2 G (ref), source cohort, endpoint/model not given): 2.03; CARE OR (rs10088505 allele A vs G (ref), Source Caseonly): 1.52; CARE OR (rs10088524, allele A1 G (non-ref), A2 A (ref), source cohort, endpoint/model not given): 1.46; CARE OR (rs10103297, allele A1 A (non-ref), A2 G (ref), source cohort, endpoint/model not given): 1.84; CARE OR (rs10120126 allele G vs A (ref), Source CaseOnly): 0.53; CARE OR (rs10189905 allele C vs A (ref), Source cohort): 0.50; CARE OR (rs10500736 allele G vs A (ref), Source cohort): 0.61; CARE OR (rs10517923 allele A vs G (ref), Source cohort): 1.62; CARE OR (rs10814422 allele G vs A (ref), Source cohort): 0.64; CARE OR (rs10849442 allele A vs G (ref), Source Caseonly): 0.56; CARE OR (rs10875941, allele A1 G (non-ref), A2 A (ref), source cohort, endpoint/model not given): 0.73; CARE OR (rs10973013 allele A vs G (ref), Source cohort): 0.59; CARE OR (rs11076320 allele C vs A (ref), Source cohort): 0.64; CARE OR (rs11082492 allele A vs C (ref), Source cohort): 1.46; CARE OR (rs11925875 allele A vs G (ref), Source cohort): 0.72; CARE OR (rs12556591 allele G vs A (ref), Source cohort): 0.57; CARE OR (rs12657484, allele A1 G (non-ref), A2 A (ref), source cohort, endpoint/model not given): 1.36; CARE OR (rs13279522 allele G vs A (ref), Source cohort): 0.62; CARE OR (rs13314266 allele G vs A (ref), Source cohort): 0.60; CARE OR (rs13318232 allele G vs A (ref), Source cohort): 0.60; CARE OR (rs16861467, allele A1 G (non-ref), A2 A (ref), source cohort, endpoint/model not given): 0.60; CARE OR (rs17076974 allele A vs G (ref), Source cohort): 1.46; CARE OR (rs17546598 allele A vs G (ref), Source cohort): 1.57; CARE OR (rs17706237 allele G vs A (ref), Source CaseOnly): 1.80; CARE OR (rs17716275, allele A1 A (non-ref), A2 G (ref), source cohort, endpoint/model not given): 1.91; CARE OR (rs72746987 allele A vs G (ref), Source cohort): 0.43
